Test results taken from patent US20170137458A1, “OXYSTEROLS FOR USE IN THE TREATMENT AND PREVENTION OF DISEASES CAUSED BY VIRUSES” (priority 2014, published 2017).
Like-named read-outs stand apart in the source and are kept apart here.

Legend:
human rotavirus Wa = test: Infectivity assay for rotavirus repeated on Caco2 cells, strain Wa; type: cell-based; details: Caco-2
Source text: The results of the antiviral assays performed treating with 25OHC and 27OHC were confirmed repeating the infectivity assays on Caco2 cells.

[1] = system: human rotavirus (strain Wa); test: Rotavirus yield reduction assay; type: cell-based
Protocol: The cells were treated at 37° C. with 25-, 27-, 7α-, 7β-hydroxycholesterol or 7-ketocholesterol at 5.6 μM for 20 hours, then washed with medium and infected with the human rotavirus at an MOI of 0.02 (strain Wa) activated with trypsin. After one hour, the cells were washed and fresh medium was added supplemented with 0.5 μg/ml of porcine trypsin. […] The assay was performed in triplicate and the results were confirmed on Caco2 cells. In an alternative protocol, the MA104 cells were treated with oxysterols—at the concentration indicated above—after the viral inoculum. The one-way variance analysis (ANOVA), followed by the Bonferroni test, was used to evaluate the statistical significance of the virus titre differences between the treated and non-treated samples. The significance was fixed at 95%.
The results of the pre-treatment assays are illustrated in FIGS. 5 (MA104 cells) and 6 (Caco2 cells).

PsV of HPV-16 = test: microbe, parasite or virus in culture; type: cell-based, human papillomavirus
TLR3 = test: Quantitative real time RT-PCR of TLR-3 in Caco2 cells; type: cell-based, human; details: CaCo2 intestinal cells, 1.9 μM, 30 minutes to 6 hours
Protocol: The Caco2 cells were cultivated in DMEM medium containing 10% serum and seeded in 25 cm^2 flasks (8 million confluence cells). The next day the cells were treated, in DMEM medium containing 2% serum, with 1.9 μM 25OHC or 27OHC (dissolved in ethanol) for 30 minutes, 1, 2, 3, 4, 5 or 6 hours. Extraction of the total RNA was performed using the TRIzol Reagent (Applied Biosystems, Monza, Italy) and the quantity and purity (A260/A280 ratio) of the extracted RNA were spectrophotometrically measured. Subsequently, 2 μg of RNA were retrotranscribed using the High-Capacity cDNA Reverse Transcription Kit (Applied Biosystems). Quantitative RT-PCR was performed with 30 ng of cDNA using the “TaqMan Gene Expression Assay kits” for TLR-3 and β-actin, TaqMan Fast Universal PCR Master Mix, and 7500 Fast Real-Time PCR System (Applied Biosystems). For each gene considered, the threshold cycle (Ct) was determined and the results were normalized using β-actin as a reference gene. The relative quantification was performed using a mathematical method previously published (29). In FIGS. 1a-1b, the results are reported as increment of the genic expression (Fold change, Fc) of the treated samples with respect to the controls.

HPV PsV (protein L1) = test: Assay for adhesion of the papillomavirus to the cell surface: Western blot analysis; type: cell-based, human papillomavirus; details: Hela cells treated 16 hours, PsV 4 hours at 4° C.
Source text: L1 was detected using the murine monoclonal antibody (Ab30908, Abcam, Cambridge, UK) at a dilution of 1:2000, followed by secondary antibody IgG-HRP (Santa Cruz Biotechnology Inc.). The actin was detected using an anti-actin murine monoclonal antibody (MAB1501R, Millipore), followed by secondary antibody IgG-HRP (Santa Cruz Biotechnology Inc.).

adenovirus 5 = details: for example the adenovirus 5; cited from earlier work
rhinovirus = details: cited from earlier work
human rotavirus WI61 = test: Infectivity assay for rotavirus, MA104 cells, strain WI61
Protocol: (§1) The strains of human rotavirus Wa (ATCC® VR-2018), WI61 (ATCC® VR-2551), HRV 408 (ATCC® VR-2273), HRV 248 (ATCC® VR-2274) and DS-1 (ATCC® VR-2550) were acquired from the American Tissue Culture Collection (ATCC); the viruses were activated with 5 μg/ml porcine pancreatic trypsin of type IX (Sigma, St. Louis, Mo.) for 30 minutes at 37° C. and propagated in MA104 cells using MEM containing 0.5 μg of trypsin per ml as described previously (27).
(§2) The antiviral effectiveness of the oxysterols of the invention was determined by means of infectivity inhibition assay. The assays were performed with confluent monolayers of MA104 cells seeded in plates with 96 wells, as described previously (28). […] The control samples were prepared by treating the cells with culture medium with the addition of equal volumes of ethanol. The cells were then washed with medium, and the rotavirus infection was performed at a multiplicity of infection (MOI) of 0.02. After the infection, the cells were washed with medium and incubated at 37° C. in an incubator humidified at 5% (vol/vol) CO2-95% (vol/vol) of air. After 16 hours, the infected cells were fixed with a cold acetone-methanol mixture (50:50), and the virus titres were determined by means of indirect immunocytochemistry. The inhibition of the virus infectivity was expressed as a percentage comparing the mean number of infective events in the treated and non-treated samples±the standard deviations. Where possible, the values of the oxysterol concentrations able to determine 50% or 90% of the antiviral effect (EC50 and EC90 respectively) were calculated by means of regression analysis using the dose-response curves generated by the experimental data, with the use of PRISM 5.00 (GraphPad Software, San Diego, Calif., USA).

human rotavirus HRV 248 = test: Infectivity assay for rotavirus, MA104 cells, strain HRV 248
Protocol: as §1, §2

human rotavirus HRV 408 = test: Infectivity assay for rotavirus, MA104 cells, strain HRV 408
Protocol: as §1, §2

human rhinovirus 1A = test: Infectivity assay with rhinovirus (plaque count, HeLa cells)
Protocol: The human rhinovirus 1A (ATCC® VR-1559) was acquired from ATCC. The virus was propagated in HeLa cells, at 33° C. with 5% of CO2. When the cytopathic effect (CPE) had fully developed, cells and supernatants were collected, frozen and thawed three times, clarified and divided into aliquots. The viruses were kept at −70° C. The rhinovirus titres were determined by means of the standard plaque assay. In short, the HeLa cells were seeded 2 days prior to the infection in plates with 96 wells, reaching 60%-70% confluence at the time of the infection. The viral suspension was serially diluted in DMEM supplemented with 2% fetal bovine serum and inoculated; the infected wells were incubated at 33° C. for 1 hour, allowing the viruses to adhere and enter the cells. The cells were subsequently washed with medium and covered with a 1:1 mixture of 1.6% SeaPlaque agarose (BioWhittaker Molecular Applications) and DMEM 2X [26.76 g DMEM (Gibco BRL), 20 ml of L-glutamine (Gibco BRL), 4.4 g of sodium bicarbonate (Sigma, St. Louis, Mo.), FBS 40 ml (Sigma, St. Louis, Mo.) and 1000 ml of water]. The plates were incubated at 33° C. for 3 days. At the end of the incubation, the plates were fixed with 7.5% formaldehyde (Fluka) and coloured with crystal violet (Sigma, St. Louis, Mo.). The number of plaques formed was then counted; the virus titres were expressed in terms of plaque-forming units per ml (PFU/ml).
The HeLa cells, kept in DMEM supplemented with 10% FBS and 1% Zell Shield, were seeded (at 8×10^4 cells/well) in plates with 24 wells. The medium was removed and the cells were infected with 200 microlitres/well containing approximately 30 PFU of a stock of human rhinovirus 1A. The infected cells were incubated at 33° C. for 1 h, allowing the virus to adhere and enter the cells. […] The plates were incubated at 33° C. for 5 days. After the incubation, the plates were fixed with formaldehyde at 7.5% (Fluka), coloured with crystal violet (Sigma, St. Louis, Mo.) and the number of plaques formed was counted. The oxysterol concentration values able to determine 50% or 90% of the antiviral effect (EC50 and EC90 respectively) were calculated by means of regression analysis using the dose-response curves generated by the experimental data, using PRISM 5.00 (GraphPad Software, San Diego, Calif., USA).

human papillomavirus = test: Target identification by siRNA sensitization (TISS), human papillomavirus, HeLa cells; details: oxysterol at its EC50
Protocol: This mechanism of action vis-à-vis the rotavirus was therefore investigated, performing a target identification assay by means of sensitization with short interfering RNA (siRNA). The Caco2 cells (for the experiments with human rotavirus) or the HeLa cells (for the experiments with human papillomavirus) were seeded in a plate with 24 wells; during seeding, the cells were transfected with siRNA specific for OSBP and VAPA (at a concentration of 20 nM). […] After one day, the medium was removed and the cells inoculated with the respective viruses in the same time, temperature and MOI conditions described in the protocols of the infectivity or neutralization assays. The number of infected cells was evaluated as described in the preceding paragraphs.

[2] = pre-treatment assay, 20 hours prior to the infection

## C[C@H](CCCC(C)(C)O)[C@H]1CC[C@H]2[C@@H]3CC=C4C[C@@H](O)CC[C@]4(C)[C@H]3CC[C@]12C [25OHC, 25-hydroxycholesterol]
Human rotavirus Wa
  EC50: 190 nM
  EC90: 1260 nM
[1]; Caco2 cells, pre-treatment 5.6 μM for 20 hours, collected 48 hours after infection
  production of virus progenies: significantly limit (p<0.05) the production of virus progenies
[1]; MA104 cells, post-infection treatment 5.6 μM
  production of virus progenies: confirm the in vitro effectiveness
[1]; MA104 cells, pre-treatment 5.6 μM for 20 hours, collected 48 hours after infection
  production of virus progenies: significantly limit (p<0.05) the production of virus progenies
PsV of HPV-16; C33A cells, treated 16 hours before PsV, read-out: EC50
  EC50: 2060 nM
PsV of HPV-16; Human papillomavirus, HeLa
  EC50: 2190 nM
PsV of HPV-16; Human papillomavirus, SiHa
  EC50: 14800 nM
TLR3
  TLR3 expression: marked hyperexpression of TLR3
HPV PsV (protein L1)
  adhesion of the PsV to the cell surface (L1 Western blot): not able to inhibit adhesion of the PsV to the cell surface
Adenovirus 5
  effectiveness on naked viruses: not effective on naked viruses
rhinovirus
  replication of the genoma of the rhinovirus: able to inhibit replication of the genoma
  rhinovirus entry into the host cell: not entry into the host cell
Human rotavirus WI61
  EC50: 90 nM
  EC90: 280 nM
Human rotavirus HRV 248
  EC50: 110 nM
  EC90: 1260 nM
Human rotavirus HRV 408
  EC50: 120 nM
  EC90: 420 nM
Human rhinovirus 1A; post-infection treatment assay
  EC50: 160 nM
  EC90: 410 nM
Human rhinovirus 1A; [2]
  EC50: 290 nM
  EC90: 540 nM
Human papillomavirus; OSBP siRNA 20 nM
  antiviral activity in cells with OSBP silenced: higher
Human papillomavirus; VAPA siRNA 20 nM
  antiviral activity in cells with VAP-A silenced: higher
